Literature values, collected in patent EP4115885A1 (Charité - Universitätsmedizin Berlin, priority 2021, dated 2023).

Key:
[1] = human, in vivo

## C[C@@H]1CN(Cc2ccc(F)cc2)CCN1C(=O)COc1ccc(Cl)cc1NC(N)=O [BAY 86-5277, N-[5-chloro-2-[2-[(2R)-4-[(4-fluorophenyl)methyl]-2-methyl-1-piperazinyl]-2-oxoethoxy]phenyl]-urea]
[1]
  tolerability: generally well tolerated
Model of sepsis
  effect of blockade of CCR1: beneficial
